Patent US11484562B2, “Composition for preventing or treating obesity comprising natural mixture extracts” (KOREA INSTITUTE OF ORIENTAL MEDICINE, priority 2018, dated 2022)

Assays:
[1] = people taking Reductil, background statement; cited from earlier work
high-fat diet-fed mice = experiment: Anti-obesity effect by repeated administration for 8 weeks in obesity model induced by high-fat diet; format: in vivo, C57BL/6 mice; conditions: HFD mice
Description: 6-week-old male C57BL/6 mice (Orient Bio) were used after being acclimated for one week. A high-fat diet was fed to induce obesity. D12451 (Calorie composition: 45% of fats, 35% of carbohydrates, and 20% of proteins, Research Diets, Inc.) was used as the high-fat diet, and Purina Rodent Chow was used as a normal diet. The mice were allowed to freely access feed and drinking water. The CMO1 mixture was administered together with the […] feed at a weight ratio of 0.1% (w/w) and 0.25% (w/w). Xenical™ (orlistat, Sigma, MO, USA), as a control drug, was administered together with the […] feed in a weight ratio of 0.1% (w/w). A daily dose of the CMO1 mixture, calculated based on an average daily feed intake, was 70 mg/kg/day in the case of 0.1%, and 190 mg/kg/day in the case of 0.25%, and a daily dose of Xenical™ was […]. Body weights and feed intakes were measured every week, and organs were excised and weighed in autopsy after 8 weeks and then stored at −80° C. In autopsy, blood was collected from the abdominal vein after laparotomy under deep anesthesia. The blood was stored in a cryogenic refrigerator according to analysis conditions and thawed immediately before initiating the experiment. Levels of total cholesterol, triglyceride, HDL cholesterol, and LDL cholesterol were analyzed using an automatic blood biochemistry analyzer (Hitachi, Japan). In order to analyze size changes in adipocytes and hepatocytes caused by accumulation of fats, the organ was immobilized with 10% neutralized formalin (Microme, USA) for 24 hours, embedded into paraffin blocks via a general tissue treatment process, and sectioned into 4 μm slices. The slices were hydrated and stained with hematoxylin and eosin (H&E). The stained tissue was observed using an optical microscope (BX51, Olympus, Japan) to measure sizes of cells. […] All measurement values of each experiment are expressed as mean±standard error. […]

pancreatic lipase = molecular target: T1, pancreatic lipase (Homo sapiens, UniProt P16233); conditions: background statement; cited from earlier work
T1 sequence (P16233 17-465): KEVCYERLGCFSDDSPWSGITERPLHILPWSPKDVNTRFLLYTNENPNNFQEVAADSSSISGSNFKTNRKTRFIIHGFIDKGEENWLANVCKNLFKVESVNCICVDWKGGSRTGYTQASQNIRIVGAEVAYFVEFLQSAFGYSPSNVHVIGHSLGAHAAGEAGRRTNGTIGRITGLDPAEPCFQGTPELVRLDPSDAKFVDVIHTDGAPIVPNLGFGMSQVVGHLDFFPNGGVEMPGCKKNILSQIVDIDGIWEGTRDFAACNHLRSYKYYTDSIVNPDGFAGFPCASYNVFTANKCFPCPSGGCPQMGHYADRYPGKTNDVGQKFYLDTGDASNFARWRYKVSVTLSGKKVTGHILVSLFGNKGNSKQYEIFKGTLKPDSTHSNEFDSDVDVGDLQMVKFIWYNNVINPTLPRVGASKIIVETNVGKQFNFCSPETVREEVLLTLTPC

[2] = during 8-week administration in feed

| Compound | higher number of cardiovascular events versus a control group [1] | hardness of excrement (high-fat diet-fed mice; 8-week administration in feed) | appearance of hair during administration (high-fat diet-fed mice; [2]) | diarrhea (side effect) (high-fat diet-fed mice; [2]) | inhibition of absorption of dietary fat (pancreatic lipase) |
| --- | --- | --- | --- | --- | --- |
| CC(C)CC(N(C)C)C1(c2ccc(Cl)cc2)CCC1 (centres unmarked) [Reductil, Sibutramine] | 16% |  |  |  |  |
| CCCCCCCCCCC[C@@H](C[C@@H]1OC(=O)[C@H]1CCCCCC)OC(=O)[C@H](CC(C)C)NC=O [Xenical, Orlistat] |  | very soft excrement | oily and lumpy hair | serious diarrhea | approximately 30% |
